# Target: T1, CCR-2 receptor (Homo sapiens, UniProt P41597)
# T1 construct: the endogenous CCR-2 receptor on various cell types including monocytes, THP-1 cells; endogenous in cells; host or cells: monocytes, THP-1 cells (or unnamed eukaryotic cells expressing the cloned receptor)
# Test: CCR-2 binding assay (inhibition of 125I-MCP-1 binding)
# Conditions: qualitative comparison among separated isomers; assay not given
# Method: Receptor affinity in a CCR-2 binding assay was determined by measuring inhibition of ^125I-MCP-1 to the endogenous CCR-2 receptor on various cell types including monocytes, THP-1 cells, or after heterologous expression of the cloned receptor in eukaryotic cells. The cells were suspended in binding buffer (50 mM HEPES, pH 7.2, 5 mM MgCl2, 1 mM CaCl2, and 0.50% BSA) with and added to test compound or DMSO and ^125I-MCP-1 at room temperature for 1 h to allow binding. The cells were then collected on GFB filters, washed with 25 mM HEPES buffer containing 500 mM NaCl and cell bound ^125I-MCP-1 was quantified.
# T1 sequence (P41597 whole entry): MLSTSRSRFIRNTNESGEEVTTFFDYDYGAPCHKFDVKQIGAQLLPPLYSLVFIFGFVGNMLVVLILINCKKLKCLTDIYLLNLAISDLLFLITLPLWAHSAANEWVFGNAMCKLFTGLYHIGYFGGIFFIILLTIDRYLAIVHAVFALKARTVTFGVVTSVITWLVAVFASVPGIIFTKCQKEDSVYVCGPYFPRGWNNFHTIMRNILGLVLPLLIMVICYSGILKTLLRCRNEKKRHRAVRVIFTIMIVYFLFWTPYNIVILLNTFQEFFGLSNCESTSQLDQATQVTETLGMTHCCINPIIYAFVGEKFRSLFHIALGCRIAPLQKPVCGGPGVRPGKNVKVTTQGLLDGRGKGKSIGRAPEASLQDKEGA
compound,measurement,value
"CCOC(=O)c1cccc(C2CCN([C@@H]3CC[C@](C(C)=O)(C(=O)N4COc5ccc(C(F)(F)F)cc5C4)C3)CC2)c1 (single isomer, unassigned) [Peak 3]",potency relative to other stereoisomers,best potency

# Source: patent US20070238723A1, “Benzoxazinyl-amidocyclopentyl-heterocyclic modulators of chemokine receptors” (priority 2004, published 2007)
